Results reported in PMC7051184, “C9orf72 arginine-rich dipeptide repeat proteins disrupt karyopherin-mediated nuclear import” (eLife, 2020).
Where a SMILES comes first, the peptide text is derived from it.

Columns and labels:
[1] = target: importin β-mediated nuclear import of Rango (Homo sapiens, UniProt Q14974); assay: Permeabilized cell nuclear import assay, Rango, mouse primary cortical neurons; assay type: cell-based; details: for Effect on Rango import, time-lapse imaging: 30 min, up to 100 µM
importin β-mediated nuclear import of Rango, sequence (Q14974 whole entry): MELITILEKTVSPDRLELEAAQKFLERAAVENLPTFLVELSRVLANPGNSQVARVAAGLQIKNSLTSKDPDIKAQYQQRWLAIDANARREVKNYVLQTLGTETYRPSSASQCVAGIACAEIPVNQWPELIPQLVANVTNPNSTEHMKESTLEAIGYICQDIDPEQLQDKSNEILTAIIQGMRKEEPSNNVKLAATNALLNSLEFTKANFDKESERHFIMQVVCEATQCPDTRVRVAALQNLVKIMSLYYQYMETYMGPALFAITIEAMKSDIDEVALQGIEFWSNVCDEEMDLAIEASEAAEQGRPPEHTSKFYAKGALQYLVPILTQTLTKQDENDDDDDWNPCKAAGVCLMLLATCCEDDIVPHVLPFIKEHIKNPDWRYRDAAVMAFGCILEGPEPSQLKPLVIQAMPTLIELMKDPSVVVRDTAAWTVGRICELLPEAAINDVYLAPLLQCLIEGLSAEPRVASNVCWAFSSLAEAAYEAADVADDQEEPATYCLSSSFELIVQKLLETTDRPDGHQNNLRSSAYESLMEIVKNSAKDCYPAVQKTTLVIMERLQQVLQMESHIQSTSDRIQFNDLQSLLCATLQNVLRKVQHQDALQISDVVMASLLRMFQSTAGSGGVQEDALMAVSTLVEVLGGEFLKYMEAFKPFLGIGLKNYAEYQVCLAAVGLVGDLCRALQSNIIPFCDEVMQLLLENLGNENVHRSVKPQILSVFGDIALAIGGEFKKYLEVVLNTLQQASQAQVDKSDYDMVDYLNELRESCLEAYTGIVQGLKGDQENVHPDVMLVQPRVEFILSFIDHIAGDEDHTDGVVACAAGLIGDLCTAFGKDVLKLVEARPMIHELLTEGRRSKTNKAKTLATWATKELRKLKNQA
From the text: All animal procedures were approved by the Johns Hopkins Animal Care and Use Committee. Timed pregnant C57BL/6J females (Jackson Laboratory, Bar Harbor, ME) were sacrificed by cervical dislocation at E16, cortex dissociated, and cells plated at 50,000/well on poly-D-lysine/laminin-coated, optical glass-bottom 96-well plates. Growth medium consisted of Neurobasal supplemented with B27, Glutamax, and penicillin/streptomycin (Gibco/ThermoFisher). At 5–7 days in vitro, neurons were rinsed in prewarmed PBS and permeabilized for 4 min. at 37° in a hypotonic solution containing […] Tris-HCl pH 7.5 (to cause osmotic swelling) and 50–150 mg/ml BSA (for molecular crowding/mechanical support). Following permeabilization, cells were placed on ice and rinsed 2 × 5 min in transport buffer (TRB, 20 mM HEPES, 110 mM KOAc, 2 mM Mg(OAc)2, 5 mM NaOAc, 0.5 mM EGTA, 250 mM sucrose, pH 7.3, with protease inhibitor cocktail). All rinse and assay buffers were supplemented with 50 mg/mL BSA. The optimal hypotonic buffer and BSA concentration varied by batch, and was optimized prior to each set of assays for ability to permeabilize the majority of plasma membranes while maintaining nuclear exclusion of a 70 kD fluorescent dextran (ThermoFisher).
Concentrated whole cell lysates were prepared from HEK293T cells (ATCC, mycoplasma negative and validated by STR profiling), grown in 150 mm dishes and sonicated on ice in 1X TRB in the presence of protease inhibitor cocktail (Roche). The lysates were clarified (15 min, 14000 g, 4C), snap frozen in liquid nitrogen, and stored in single use aliquots at −80C. Total HEK cell RNA was extracted using miRNEasy kits according to the manufacturers’ protocol, with DNase digestion (Qiagen). RNA concentration was measured by Nanodrop (ThermoFisher), and all 260/280 ratios were verified to be > 2.0. Energy regeneration (ER) mix consisted of 100 µM ATP, 100 µM GTP, 4 mM creatine phosphate, and 20 U/mL creatine kinase (Roche).
Reaction mixes consisting of 2.5 mg/ml lysate, ER, fluorescent cargo (200 nM Rango and YFP-M9-CFP, 500 nM GST-GFP-NLS), Hoechst, DPRs, RNA, or inhibitors (100 µM importazole (IPZ, Millipore Sigma); 0.8 mg/mL wheat germ agglutinin (WGA, Millipore Sigma) were assembled on ice during cell permeabilization. DPRs or inhibitors were allowed to equilibrate in cell lysate for at least 30 min prior to initiation of transport. Every plate included: (1) Cargo alone: fluorescent cargo, but no ER or lysate, (2) Untreated controls: fluorescent cargo, ER, and lysate, and (3) Inhibitor: fluorescent cargo, ER, lysate, and IPZ (Rango and GST-GFP-NLS reactions) or WGA (YFP-M9-CFP). Preassembled transport reactions were then transferred onto permeabilized cells via multichannel pipette, and allowed to proceed at room temperature for 2 hr (Rango, YFP-M9-CFP) or 4 hr (GST-GFP-NLS). Cells were fixed in 4% paraformaldehyde/PBS, rinsed 2x with PBS, and transferred to 50% glycerol/PBS for immediate imaging.
For a subset of neuron transport assays, transport was monitored live via time lapse imaging every 5 min for 30 min. In a subset of HeLa assays, transport reactions were centrifuged before use at 14,000g × 15 min to separate soluble and insoluble fractions. In another variation, the transport lysate + DPR and ER mix was allowed to preincubate on the permeabilized HeLa cells for 1 hour prior to initiation of transport, rinsed 1x with TRB, and transport initiated with fresh lysate, cargo, and ER.
Multiple non-overlapping fields per well (4 for time-lapse imaging, 9-16 for fixed imaging), were captured at 40x on an ImageXpress Micro XLS high-content microscope (Molecular Devices, San Jose, CA), and the ratio of nuclear to cytoplasmic fluorescence intensity was calculated using the MetaXpress automated translocation-enhanced module. Raw data were filtered to exclude autofluorescence and the mean N/C ratio from wells without ER or cell lysate was subtracted from all values.

[2] = DPR aggregate formation in HEK lysate (pellet vs. supernatant, total protein); assay type: biochemical, human
Description: Supernatant and pellet fractions (for all 5 DPRs, and control/buffer only) were prepared as in the nuclear transport assays, by adding 100 µM 10mers to 2.5 mg/ml HEK lysate in 100 µL TRB. Supernatants were boiled in Laemmli (BioRad) for 5 min. Pellets were boiled for 15 min followed by sonication in order to fully disperse aggregates for SDS-PAGE. Equal volumes of supernatant and pellet fractions were run on 4–12% Bolt Bis-Tris Plus gels (ThermoFisher), transferred to nitrocellulose membrane using an iBlot2 dry blotting system (ThermoFisher). Protein loading was analyzed by BLOT-Faststain (G-biosciences, St. Louis, MO), according to the manufacterers’ instructions. For immunodetection, membranes were blocked with 5% non-fat milk in TBST and probed by sequential incubation with the primary antibodies as detailed in the table below. Detection was by HRP-conjugated secondary antibodies/chemiluminescence using an ImageQuant LAS 4000 system (GE, Chicago, IL). To permit sequential probing of membranes without stripping, signals were quenched by incubation with prewarmed 30% H20_2 for 20 min ([Sennepin et al., 2009]). Band intensities were measured by ImageQuant software. For pellet vs. supernatant fractions, all were expressed as percent untreated control. […]

Ran = assay: DPR aggregation assay and western blot, Ran; assay type: biochemical, human; details: for Ran band density, Pellet / Ran band density, Supernatant: 100 µM 10mer in 2.5 mg/ml HEK lysate, normalized to untreated HEK; for Ran band density, % untr control: Fig 5-suppl 3C, normalized to untreated HEK on same membrane;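 for Ran band density, % untr control: RNA rows contain added 20 µg total HEK RNA while no-RNA rows lack it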
Description: (§1) Supernatant and pellet fractions (for all 5 DPRs, and control/buffer only) were prepared as in the nuclear transport assays, by adding 100 µM 10mers to 2.5 mg/ml HEK lysate in 100 µL TRB. Supernatants were boiled in Laemmli (BioRad) for 5 min. Pellets were boiled for 15 min followed by sonication in order to fully disperse aggregates for SDS-PAGE. Equal volumes of supernatant and pellet fractions were run on 4–12% Bolt Bis-Tris Plus gels (ThermoFisher), transferred to nitrocellulose membrane using an iBlot2 dry blotting system (ThermoFisher). Protein loading was analyzed by BLOT-Faststain (G-biosciences, St. Louis, MO), according to the manufacterers’ instructions. For immunodetection, membranes were blocked with 5% non-fat milk in TBST and probed by sequential incubation with the primary antibodies as detailed in the table below. Detection was by HRP-conjugated secondary antibodies/chemiluminescence using an ImageQuant LAS 4000 system (GE, Chicago, IL). To permit sequential probing of membranes without stripping, signals were quenched by incubation with prewarmed 30% H20_2 for 20 min ([Sennepin et al., 2009]). Band intensities were measured by ImageQuant software. For pellet vs. supernatant fractions, all were expressed as percent untreated control. For blots in Figure 1E, samples were run on 4–20% SDS PAGE minigels (ThermoFisher) and blotted to PVDF membranes (Immun-Blot PVDF, Bio-Rad) using the Bio-Rad TransBlot Turbo apparatus, and probed as above. The chemiluminescence signal was captured with a Bio-Rad ChemiDoc XRS+ digital imaging system.

importin β = assay: DPR aggregation assay and western blot, ImpB; assay type: biochemical, human; details: for ImpB band density, Pellet / ImpB band density, Supernatant: 100 µM 10mer in 2.5 mg/ml HEK lysate, normalized to untreated HEK; for ImpB band density, % untr control: Fig 5-suppl 3C, normalized to untreated HEK on same membrane;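 for ImpB band density, % untr control: RNA rows contain added 20 µg total HEK RNA while no-RNA rows lack it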
Description: as §1

transportin-1 (Tnpo1) = assay: DPR aggregation assay and western blot, Tnpo1; assay type: biochemical, human; details: for Tnpo1 band density, Pellet / Tnpo1 band density, Supernatant: 100 µM 10mer in 2.5 mg/ml HEK lysate, normalized to untreated HEK; for TNPO1 band density, % untr control: Fig 5-suppl 3C, normalized to untreated HEK on same membrane;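 for TNPO1 band density, % untr control: RNA rows contain added 20 µg total HEK RNA while no-RNA rows lack it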
Description: as §1

[3] = Pellet, no RNA (Untreated), blot 1
[4] = Pellet, no RNA (Untreated), blot 2
[5] = Supernatant, no RNA (Untreated), blot 1
[6] = Supernatant, no RNA (Untreated), blot 2

Compound	Effect on Rango import, time-lapse imaging [1]	Ran band density, % untr control (Ran; Pellet, RNA, blot 1) [%]	Ran band density, % untr control (Ran; Pellet, RNA, blot 2) [%]	Ran band density, % untr control (Ran; [3]) [%]	Ran band density, % untr control (Ran; [4]) [%]	Ran band density, % untr control (Ran; Supernatant, RNA, blot 1) [%]	Ran band density, % untr control (Ran; Supernatant, RNA, blot 2) [%]	Ran band density, % untr control (Ran; [5]) [%]	Ran band density, % untr control (Ran; [6]) [%]	ImpB band density, % untr control (importin β; Pellet, RNA, blot 1) [%]	ImpB band density, % untr control (importin β; Pellet, RNA, blot 2) [%]	ImpB band density, % untr control (importin β; [3]) [%]	ImpB band density, % untr control (importin β; [4]) [%]	ImpB band density, % untr control (importin β; Supernatant, RNA, blot 1) [%]	ImpB band density, % untr control (importin β; Supernatant, RNA, blot 2) [%]	ImpB band density, % untr control (importin β; [5]) [%]	ImpB band density, % untr control (importin β; [6]) [%]	TNPO1 band density, % untr control (transportin-1 (Tnpo1); Pellet, RNA, blot 1) [%]	TNPO1 band density, % untr control (transportin-1 (Tnpo1); Pellet, RNA, blot 2) [%]	TNPO1 band density, % untr control (transportin-1 (Tnpo1); [3]) [%]	other results
N=C(N)NCCC[C@H](NC(=O)[C@@H]1CCCN1C(=O)[C@H](CCCNC(=N)N)NC(=O)[C@@H]1CCCN1C(=O)[C@H](CCCNC(=N)N)NC(=O)[C@@H]1CCCN1C(=O)[C@H](CCCNC(=N)N)NC(=O)[C@@H]1CCCN1C(=O)[C@H](CCCNC(=N)N)NC(=O)[C@@H]1CCCN1C(=O)[C@H](CCCNC(=N)N)NC(=O)[C@@H]1CCCN1C(=O)[C@H](CCCNC(=N)N)NC(=O)[C@@H]1CCCN1C(=O)[C@H](CCCNC(=N)N)NC(=O)[C@@H]1CCCN1C(=O)[C@H](CCCNC(=N)N)NC(=O)[C@@H]1CCCN1C(=O)[C@H](CCCNC(=N)N)NC(=O)[C@@H]1CCCN1)C(=O)O [PR10] (H-PRPRPRPRPRPRPRPRPRPR-OH; N-terminus and C-terminus assumed)	dose-dependent inhibition of transport	201.97	271.01	172.26	224.02	114.46	110.30	105.51	113.60	176.94	208.79	231.77	273.94	95.64	121.54	76.39	117.49	162.49	169.58	284.53	Depletion of NCT proteins from the supernatant ([2]; 100 µM): not substantially depleted from the supernatant; Ran band density, Pellet (Ran; Blot 1): 101.8 % control; Ran band density, Supernatant (Ran; Blot 1): 104.7 % control; Ran band density, Pellet (Ran; Blot 2): 132.9 % control; Ran band density, Supernatant (Ran; Blot 2): 105.7 % control; ImpB band density, Pellet (importin β; Blot 1): 818.3 % control; ImpB band density, Supernatant (importin β; Blot 1): 89.3 % control; ImpB band density, Pellet (importin β; Blot 2): 483.8 % control; ImpB band density, Supernatant (importin β; Blot 2): 77.0 % control; Tnpo1 band density, Pellet (transportin-1 (Tnpo1); Blot 1): 258.1 % control; Tnpo1 band density, Supernatant (transportin-1 (Tnpo1); Blot 1): 76.9 % control; Tnpo1 band density, Pellet (transportin-1 (Tnpo1); Blot 2): 476.3 % control; Tnpo1 band density, Supernatant (transportin-1 (Tnpo1); Blot 2): 65.0 % control; TNPO1 band density, % untr control (transportin-1 (Tnpo1); [4]): 326.13%; TNPO1 band density, % untr control (transportin-1 (Tnpo1); Supernatant, RNA, blot 1): 75.09%; TNPO1 band density, % untr control (transportin-1 (Tnpo1); Supernatant, RNA, blot 2): 93.47%; TNPO1 band density, % untr control (transportin-1 (Tnpo1); [5]): 65.77%; TNPO1 band density, % untr control (transportin-1 (Tnpo1); [6]): 83.87%
GA10: Synthetic 10-mer GA dipeptide repeat with C-terminal lysine and cysteine (GAGAGAGAGAGAGAGAGAGAKC)	no effect	129.05	192.76	79.12	116.78	116.22	99.76	117.84	105.67	90.07	91.42	90.15	102.12	78.71	123.36	89.10	114.58	84.30	68.79	107.97	Effect on Rango import at steady state ([1]; 100 µM, fixed at 2 hr): only trace inhibition; NCT inhibition in permeabilized neurons ([1]; high concentrations): only minimal inhibition at high concentrations; Aggregate formation in cell lysate ([2]; transport assay lysate): did not observe GA-induced aggregate formation; TNPO1 band density, % untr control (transportin-1 (Tnpo1); [4]): 107.46%; TNPO1 band density, % untr control (transportin-1 (Tnpo1); Supernatant, RNA, blot 1): 64.64%; TNPO1 band density, % untr control (transportin-1 (Tnpo1); Supernatant, RNA, blot 2): 100.29%; TNPO1 band density, % untr control (transportin-1 (Tnpo1); [5]): 66.29%; TNPO1 band density, % untr control (transportin-1 (Tnpo1); [6]): 92.01%
